This is an account of results in patent US9969732B2, “Tetrahydroisoquinoline estrogen receptor modulators and uses thereof” (Genentech, Inc., priority 2016, dated 2018).

In the test the target is T1, ER-alpha (WT) (Homo sapiens, UniProt P03372).
T1 construct: endogenous in cells; host or cells: MCF7 breast cancer cells
T1 sequence (P03372 1-595): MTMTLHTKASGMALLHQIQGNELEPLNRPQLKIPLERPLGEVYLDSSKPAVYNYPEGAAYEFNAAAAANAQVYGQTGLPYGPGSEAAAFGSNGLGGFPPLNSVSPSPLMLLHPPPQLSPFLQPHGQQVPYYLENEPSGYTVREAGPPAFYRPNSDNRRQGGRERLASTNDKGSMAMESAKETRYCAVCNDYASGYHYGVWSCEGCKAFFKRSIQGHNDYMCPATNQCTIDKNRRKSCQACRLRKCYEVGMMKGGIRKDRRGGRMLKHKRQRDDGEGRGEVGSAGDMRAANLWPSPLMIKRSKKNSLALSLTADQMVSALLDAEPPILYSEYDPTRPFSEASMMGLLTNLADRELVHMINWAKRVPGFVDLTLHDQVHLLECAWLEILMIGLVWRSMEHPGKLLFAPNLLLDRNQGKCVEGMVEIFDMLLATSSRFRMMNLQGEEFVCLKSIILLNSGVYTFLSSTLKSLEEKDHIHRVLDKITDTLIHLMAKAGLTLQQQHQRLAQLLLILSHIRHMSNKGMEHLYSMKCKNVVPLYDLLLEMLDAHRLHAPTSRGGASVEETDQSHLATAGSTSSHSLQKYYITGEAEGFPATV
The experiment in a line: Breast Cancer Cell ERa High Content Fluorescence Imaging Degradation Assay (MCF7 HCS). Conditions: MCF7 breast cancer cells, 4 hours incubation; for EC50: inflexion point of curve; for ERalpha (WT) MCF7 HCS (S inf): plateau of the maximal effect, DMSO and Fulvestrant define 0% and 100% changes in ESR1. It is filed as cell-based. Here is the method:
MCF7 breast cancer cells were seeded on day 1 at a density of 10,000 cells per well in 384 well poly-lysine coated tissue culture plate (Greiner #T-3101-4), in 50 μL/well RPMI (phenol red free), 10% FBS (Charcoal stripped), containing L-glutamine. […] Compounds and controls were dispensed using a Labcyte Echo acoustic dispenser to dispense compounds with a predefined serial dilution (1.8×, 10 point, in duplicate) and appropriate backfill and control compounds (final total volume transferred was 417.5 nL and compound dispense volume ranges from 2.5 nL to 417.5 nL; 0.84% DMSO (v/v) final), ultimately producing a concentration range from 0.05 nM to 835 nM. Cell plates were incubated at 37° C., for 4 hours. Fixation and permeabilization were carried out using a Biotek EL406 plate washer and dispenser as follows. Cells were fixed by addition of 15 μL of 16% paraformaldehyde (Electron Microscopy Sciences #15710-S) directly to the 50 μL cell culture medium in each well using the peristaltic pump 5 μL cassette on a Biotek EL406 (final concentration of formaldehyde was 3.7% w/v). Samples were incubated 30 minutes. Well contents was aspirated and 50 μL/well of Phosphate Buffered Saline (PBS) containing 0.5% w/v bovine serum albumen, 0.5% v/v Triton X-100 (Antibody Dilution Buffer) was added to each well. Samples were incubated for 30 minutes. Well contents were aspirated and washed 3 times with 100 μL/well of PBS. Immunofluorescence staining of estrogen receptor alpha (ESR1) was carried out using a Biotek EL406 plate washer and dispenser as follows. The well supernatant was aspirated from the wells and 25 μL/well of anti-ESR1 mAb (F10) (Santa Cruz sc-8002) diluted 1:1000 in Antibody Dilution Buffer was dispensed. Samples were incubated for 2 hours at room temperature. Samples were washed 4 times with 100 μL/well of PBS. 25 μL (microliters)/well of secondary antibody solution (Alexafluor® 488 conjugate anti-mouse IgG (LifeTechnologies #A21202) diluted 1:1000 and Hoechst 33342 1 μg/mL diluted in Antibody Dilution Buffer) were dispensed into each well. Samples were incubated for 2 hours at room temperature. Samples were washed 3 times with 100 μL/well of PBS using a Biotek EL406. Quantitative fluorescence imaging of ESR1 was carried out using a Cellomics Arrayscan V® (Thermo). Fluorescence images of the samples (Channel 1: XF53 Hoechst (DNA stain); Channel 2: XF53 FITC (ESR1 stain)) were acquired using a Cellomics VTI Arrayscan using the Bioapplication “Compartmental Analysis” using the auto-exposure (based on DMSO control wells) setting “peak target percentile” set to 25% target saturation for both channels. Channel 1 (DNA stain) was used to define the nuclear region (Circ). Measurements of “Mean_CircAvgIntCh2”, which is the Alexafluor 488 fluorescence intensity (ESR1) within the nuclear region, was measured on a per cell basis and averaged over all the measured cells. Data analysis was carried out using Genedata Screener Software, with DMSO and 5 nM Fulvestrant treated samples being used to define the 0% and 100% changes in ESR1. The “Robust Fit” method was used to define the inflexion point of curve (EC50) and the plateau of the maximal effect (Sinf).

Bounds are passed on as bounds.

The EC50 is the midpoint of the concentration-response curve. A higher EC50 goes with weaker potency. On to `C[C@]1(c2ccc(OCCN3CC(CF)C3)cc2)c2ccc(O)cc2CCN1CC(F)(F)CO` [Example 129, (S)-2-(2,2-difluoro-3-hydroxypropyl)-1-(4-(2-(3-(fluoromethyl)azetidin-1-yl)ethoxy)phenyl)-1-methyl-1,2,3,4-tetrahydroisoquinolin-6-ol], for which the EC50 was 2.7 nM and the “ERalpha (WT) MCF7 HCS (S inf)” value is −101%.

For `C[C@H]1Cc2cccc(O)c2[C@H](c2ccc(OCCN3CC(CF)C3)cc2)N1CC(F)(F)CO` (single isomer, unassigned) [Example 168], the EC50 stood at 510 nM.

For `CS(=O)(=O)N1CCc2cc(O)ccc2[C@H]1c1ccc(OCCN2CC(CF)C2)cc1` (single isomer, unassigned) [Example 110], the concentration for a half-maximal effect (EC50) was found to be 8.28 nM and the “ERalpha (WT) MCF7 HCS (S inf)” value is listed as −85%.

In the case of `C[C@H]1Cc2cc(CO)ccc2[C@H](c2ccc(OCCN3CC(CF)C3)cc2)N1CC(F)(F)CO` (single isomer, unassigned) [Example 171], the EC50 turned out to be 23 nM and the “ERalpha (WT) MCF7 HCS (S inf)” value was −63%.

`CC(C)(F)CN1CCc2cc(O)ccc2[C@H]1c1ccc(OCCN2CC(CF)C2)cc1` [Example 106, (R)-2-(2-fluoro-2-methylpropyl)-1-(4-(2-(3-(fluoromethyl)azetidin-1-yl)ethoxy)phenyl)-1,2,3,4-tetrahydroisoquinolin-6-ol]: the EC50 stood at 0.042 nM and the “ERalpha (WT) MCF7 HCS (S inf)” value is listed as −101%.

As for `C[C@@H]1CCN(CCOc2ccc([C@@]3(C)c4ccc(O)cc4CCN3CC(C)(C)F)cc2)C1` [Example 125, (S)-2-(2-fluoro-2-methylpropyl)-1-methyl-1-(4-(2-((R)-3-methylpyrrolidin-1-yl)ethoxy)phenyl)-1,2,3,4-tetrahydroisoquinolin-6-ol], a half-maximal response (EC50) required 7.4 nM and the “ERalpha (WT) MCF7 HCS (S inf)” value is on record as −57%.

As for `C[C@H](CN1CCc2cc(O)ccc2[C@@]1(C)c1ccc(OCCN2CC(CF)C2)cc1)C(=O)O` [Example 137, (R)-3-((R)-1-(4-(2-(3-(fluoromethyl)azetidin-1-yl)ethoxy)phenyl)-6-hydroxy-1-methyl-3,4-dihydroisoquinolin-2(1H)-yl)-2-methylpropanoic acid], the EC50 was found to be 40 nM and the “ERalpha (WT) MCF7 HCS (S inf)” value is −45%.

Regarding `CC1(C)Cc2cc(O)ccc2[C@H](c2ccc(OCCN3CC(CF)C3)cc2)N1CC(F)(F)F` [Example 157, (S)-1-(4-(2-(3-(Fluoromethyl)azetidin-1-yl)ethoxy)phenyl)-3,3-dimethyl-2-(2,2,2-trifluoroethyl)-1,2,3,4-tetrahydroisoquinolin-6-ol], the EC50 worked out at 0.48 nM and the “ERalpha (WT) MCF7 HCS (S inf)” value was −98%.

`Oc1ccc2c(c1)CCN(CC(F)(F)F)C2c1c(F)cc(OC2CN(CCCF)C2)cc1F` (single isomer, unassigned) [Example 144]: a half-maximal effect (EC50) was put at 0.041 nM and the “ERalpha (WT) MCF7 HCS (S inf)” value is recorded as −102%.

Take `Oc1ccc2c(c1)CC[C@H](c1ccccc1)[C@@H]2c1ccc(OCCN2CCCC2)cc1` [lasofoxifene, (5R,6S)-6-phenyl-5-(4-(2-(pyrrolidin-1-yl)ethoxy)phenyl)-5,6,7,8-tetrahydronaphthalen-2-ol, reference compound]: the “ERalpha (WT) MCF7 HCS (S inf)” value was −73.5%.

With `C[C@@H](CN1CCc2cc(O)ccc2[C@@]1(C)c1ccc(OCCN2CC(CF)C2)cc1)C(=O)O` [Example 136, (S)-3-((R)-1-(4-(2-(3-(fluoromethyl)azetidin-1-yl)ethoxy)phenyl)-6-hydroxy-1-methyl-3,4-dihydroisoquinolin-2(1H)-yl)-2-methylpropanoic acid], the EC50 was not below 100 nM.

On to `Oc1ccc2c(c1)CCN(CC(F)(F)F)C2c1c(F)cc(OC2CN(CCCF)C2)cc1F` (single isomer, unassigned) [Example 143], for which a half-maximal response (EC50) required 22 nM and the “ERalpha (WT) MCF7 HCS (S inf)” value was −100%.

As to `C[C@@H]1Cc2cc(C(=O)O)ccc2[C@@H](c2ccc(OCCN3CC(CF)C3)cc2)N1CC(F)(F)F` (single isomer, unassigned) [Example 164], the midpoint of the response, the EC50, lay at 1.3 nM and the “ERalpha (WT) MCF7 HCS (S inf)” value was −100%.

Consider `Oc1ccc2c(c1)CCN(CC(F)(F)F)[C@@H]2c1c(F)cc(OCCN2CC(CF)C2)cc1F` [Example 134, (1S)-1-[2,6-difluoro-4-[2-[3-(fluoromethyl)azetidin-1-yl]ethoxy]phenyl]-2-(2,2,2-trifluoroethyl)-3,4-dihydro-1H-isoquinolin-6-ol], for which the EC50 is 0.013 nM and the “ERalpha (WT) MCF7 HCS (S inf)” value is reported as −98%.

With `C[C@@H]1Cc2cc(CO)ccc2[C@@H](c2ccc(OCCN3CC(CF)C3)cc2)N1CC(F)(F)F` (single isomer, unassigned) [Example 159], the EC50 is 0.043 nM and the “ERalpha (WT) MCF7 HCS (S inf)” value is −99%.

Turning to `CC(=O)c1ccc2c(c1)C[C@@H](C)N(CC(F)(F)CO)[C@@H]2c1ccc(OCCN2CC(CF)C2)cc1` (single isomer, unassigned) [Example 175], the EC50 is 0.168 nM and the “ERalpha (WT) MCF7 HCS (S inf)” value is −97%.

For `CC(C)(F)CN1CCc2cc(O)ccc2[C@]1(C)c1ccc(OCCN2CC(CF)C2)cc1` (single isomer, unassigned) [Example 107], the EC50 is 3.22 nM and the “ERalpha (WT) MCF7 HCS (S inf)” value is on record as −97%.

`C[C@@H]1CN(S(C)(=O)=O)[C@@H](c2ccc(OCCN3CC(CF)C3)cc2)c2ccc(O)cc21` (single isomer, unassigned) [Example 119] came in with an EC50 not below 100 nM.

As for `C[C@@H](CN1CCc2cc(O)ccc2[C@]1(C)c1ccc(OCCN2CC(CF)C2)cc1)C(=O)O` [Example 135, (S)-3-((S)-1-(4-(2-(3-(fluoromethyl)azetidin-1-yl)ethoxy)phenyl)-6-hydroxy-1-methyl-3,4-dihydroisoquinolin-2(1H)-yl)-2-methylpropanoic acid], the EC50 was not below 100 nM.

For the molecule `C[C@@]1(c2ccc(OCCN3CC(CF)C3)cc2)c2ccc(O)cc2CCN1CC(F)(F)CO` [Example 130, (R)-2-(2,2-difluoro-3-hydroxypropyl)-1-(4-(2-(3-(fluoromethyl)azetidin-1-yl)ethoxy)phenyl)-1-methyl-1,2,3,4-tetrahydroisoquinolin-6-ol], the EC50 was determined as 0.042 nM and the “ERalpha (WT) MCF7 HCS (S inf)” value was −101%.

Consider `CC(C)(F)C(=O)N1CCc2cc(O)ccc2[C@H]1c1ccc(OCCN2CC(CF)C2)cc1` (single isomer, unassigned) [Example 104], for which the concentration giving a half-maximal response (EC50) was 0.741 nM and the “ERalpha (WT) MCF7 HCS (S inf)” value is reported as −90%.

For the molecule `C[C@@H]1Cc2cccc(O)c2[C@@H](c2ccc(OCCN3CC(CF)C3)cc2)N1CC(F)(F)CO` (single isomer, unassigned) [Example 167], it took 22 nM to reach a half-maximal effect (EC50) and the “ERalpha (WT) MCF7 HCS (S inf)” value is −82%.

`CC(C)(F)CN1CCc2cc(O)ccc2[C@@H]1c1ccc(OCCN2CC(CF)C2)cc1` [Example 105, (S)-2-(2-fluoro-2-methylpropyl)-1-(4-(2-(3-(fluoromethyl)azetidin-1-yl)ethoxy)phenyl)-1,2,3,4-tetrahydroisoquinolin-6-ol]: a half-maximal effect (EC50) was put at 0.146 nM and the “ERalpha (WT) MCF7 HCS (S inf)” value is on record as −98%.
